From patent publication US20230181673A1, “TRI-PEPTIDES AND TREATMENT OF METABOLIC, CARDIOVASCULAR AND INFLAMMATORY DISORDERS” (Diapin Therapeutics, LLC, priority 2018, published 2023)
Non-standard residues stand in square brackets, D forms with d. No end group written: not given here.

Legend:
[1] = Body weight, food intake and adiposity in apoE−/− mice fed Western diet; assay type: in vivo; settings: apoE−/− mice on WD; for Total gain in body weight from baseline to endpoint, lower by: 12 weeks oral gavage, DT-109 1 mg/g; for Gross appearance of the peritoneal cavities at endpoint (yellowish coloration of the liver, enlarged visceral fat pads): glycine 0.67, leucine 0.33, DT-109/DT-110 1 mg/g; for Adipocyte hypertrophy in EAT and SAT: H&E histology (FIG. 15L)
Source text: (§1) All animal procedures were approved by the Institutional Animal Care & Use Committee of the University of Michigan (PRO00008239) and performed in accordance with the institutional guidelines. Eight-week-old male apolipoprotein E-deficient (apoE−/−) mice (B6.129P2-Apoetm1Unc/J, Stock No.: 002052) were obtained from Jackson Laboratories. Mice were fed Western diet (WD, 42% of calories from fat and 0.2% cholesterol by weight, Envigo TD.88137). After one week of WD feeding, blood was carefully collected from the facial vein to determine baseline plasma levels of total cholesterol (TC). […] All mice were maintained on a 12-hour light/dark cycle and had ad libitum access to food and water. Body weight and food intake were measured every one and three weeks, respectively
The experimental design is depicted in FIG. 1A. After one week of Western diet (WD) feeding to apoE−/− mice, blood was collected from the facial vein (FV) to determine baseline plasma levels of TC.
Animal procedures were approved (PRO00008239) by the Institutional Animal Care & Use Committee of the University of Michigan (U-M) and performed in accordance with the institutional guidelines. Seven weeks-old C57BL/6J or apoE−/− mice (B6.129P2-Apoetm1Unc/J, Stock:002052) were from Jackson Laboratories. AGXT1−/− mice on C57BL/6J background were generated using CRISPR/Cas9, with guide-RNA targeting exon 1 of AGXT1: 5′-[…]-3′.
Histological procedures were performed by technicians blinded to the experimental groups at the In Vivo Animal Core (IVAC) Histology Laboratory, University of Michigan. Formalin-fixed tissues were processed through graded alcohols and cleared with xylene followed by infiltration with molten paraffin using an automated VIP5 or VIP6 tissue processor (TissueTek, Sakura-Americas). Using a Histostar Embedding Station (ThermoFisher Scientific), tissues were then sectioned on a M355S rotary microtome (ThermoFisher Scientific) at 4 μm thickness and mounted on glass slides. Slides were stained for hematoxylin and eosin (H&E, ThermoFisher Scientific). For Sirius Red staining, slides were treated with 0.2 phosphomolybdic acid for 3 min and transferred to 0.1% Sirius Red saturated in picric acid (Rowley Biochemical Inc.) for 90 min, then transferred to 0.01N hydrochloric acid for 3 min.

blood glucose = assay: OGTT and non-fasting/endpoint blood glucose in WD-fed apoE−/− mice; assay type: in vivo; settings: for Endpoint glucose levels, lower by: following a 6 h fast, after 12 weeks, vs WD+H2O; for Non-fasting blood glucose 30 min post-gavage vs pre-gavage, decreased by: routine oral gavage, glycine 0.67, leucine 0.33, DT-109/DT-110 1 mg/g; for Acute OGTT: blood glucose 30 min after glucose with treatment / Acute OGTT: blood glucose at later time points (60-120 min): week 10, overnight fast, oral; for Acute OGTT: blood glucose 30 min after glucose with treatment: glucose 2 mg/g plus glycine 0.67, leucine 0.33, DT-109 or DT-110 1 mg/g; for Acute OGTT: blood glucose at later time points (60-120 min): glucose 2 mg/g plus treatment
Source text: as §1, with “Eight-week-old” for “All animal procedures were approved by the Institutional Animal Care & Use Committee of the University of Michigan (PRO00008239) and performed in accordance with the institutional guidelines. Eight-week-old”
At week 10, oral glucose tolerance tests (OGTT) were performed following an overnight fast by administering 2 mg/g of glucose via oral gavage. […] To evaluate the chronic effects of the treatments, mice were administered with glucose alone. […] Then, mice were administered with glucose with (acute) or without (chronic) treatments and blood glucose levels were measured every 30 min for up to 120 min. To assess the effects of the treatments on non-fasting glucose levels, blood was collected from the tip of the tail before routine administration of treatments via oral gavage (pre-gavage) and 30 min afterwards (post-gavage).
OGTT were performed after 12 h fasting.

liver transcriptome = assay type: in vivo, mice; settings: for TGFβ signaling and ECM remodeling pathways/genes (RNA-sequencing) / Pro-inflammatory signaling regulator and cytokine genes (NFKB1/2, RELB, CCR1/2/5, TLR1/2/4, TNFRSF1A/9/12, TNFα, CCL2/5) / Key genes regulating FAO (PPARα, PGC1α, ACOX1, CPT2, ACADS/M/L, HADHA/B, ACOT3/4): NASH-diet; for TGFβ signaling and ECM remodeling pathways/genes (RNA-sequencing): liver; for Pro-inflammatory signaling regulator and cytokine genes (NFKB1/2, RELB, CCR1/2/5, TLR1/2/4, TNFRSF1A/9/12, TNFα, CCL2/5) / Key genes regulating FAO (PPARα, PGC1α, ACOX1, CPT2, ACADS/M/L, HADHA/B, ACOT3/4): RNA-sequencing; for Key genes regulating FAO (PPARα, PGC1α, ACOX1, CPT2, ACADS/M/L, HADHA/B, ACOT3/4): confirmed by qPCR and Western blot
Protocol: Library preparation and sequencing were performed by the U-M DNA Sequencing Core on a NovaSeq 6000 Sequencing System (Illumina). RNA-sequencing and pathway analyses were performed as described.
Total RNA from mouse liver samples was extracted as described above. Library preparation and sequencing were performed by the University of Michigan DNA Sequencing Core. RNA was assessed for quality using the TapeStation (Agilent, Santa Clara, Calif.). […] Samples were prepped using the NEBNext Ultra II Directional RNA Library Prep Kit for Illumina (NEB, E7760L) with Poly(A) mRNA Magnetic Isolation Module (NEB, E7490L) and NEBNext Multiplex Oligos for Illumina Unique dual (NEB, E6440L), where 10 ng-1 μg of total RNA were subjected to mRNA polyA purification. The mRNA was then fragmented and copied into first strand cDNA using reverse transciptase and dUTP mix. Samples underwent end repair and dA-Tailing step followed by ligation of NEBNext adapters. The products were purified and enriched by PCR to create the final cDNA library. Final libraries were checked for quality and quantity by TapeStation (Agilent) and qPCR using Kapa's library quantification kit for Illumina Sequencing platforms (Kapa Biosystems, KK4835). Libraries were paired-end sequenced on a […] Sequencing System (Illumina).
The quality of the raw Fastq files was checked through FastQC v0.11.8 (https://www.bioinformaties.babraham.ac.uk/projects/fastqc/). Trimmomatic v.0.35 was used to trim the low-quality reads with the parameters: SLIDINGWINDOW:4:20 MINLEN:25.12 The resulted high-quality reads were then mapped to the mouse reference genome (GRCm38.90) using HISAT2 v.2.1.0.13 Gene level quantification was performed using HTSeq-counts v0.6.0 based on the GRCm38.90 genome annotations.14 The R package DESeq2 was then used to identify significant differentially expressed genes. 15 We considered genes with adjusted P value less than 0.05 and absolute fold change larger than 2 as significant differentially expressed genes (DEGs). […] 16 The significance of the enrichment was determined by right-tailed Fisher's exact test followed by Benjamini-Hochberg multiple testing adjustment.
Mice fed CD and administered H2O served as control.

| Molecule | Total gain in body weight from baseline to endpoint, lower by ([1]; glycine 0.67 mg/g, vs WD+H2O) [%] | Gross appearance of the peritoneal cavities at endpoint (yellowish coloration of the liver, enlarged visceral fat pads) ([1]; 12 weeks) | Adipocyte hypertrophy in EAT and SAT [1] | Glucose-lowering in OGTT and in non-fasting glucose (blood glucose; apoE−/− mice on WD, after 10 weeks, DT-109 1 mg/g/day vs equivalent leucine, glycine or H2O) | Endpoint glucose levels, lower by (blood glucose) [%] | Non-fasting blood glucose 30 min post-gavage vs pre-gavage, decreased by (blood glucose) | Acute OGTT: blood glucose 30 min after glucose with treatment (blood glucose) | Acute OGTT: blood glucose at later time points (60-120 min) (blood glucose) | Pathway analysis, NASH-diet H2O control vs treatment (liver transcriptome; DT-109 0.5 mg/g/day) | TGFβ signaling and ECM remodeling pathways/genes (RNA-sequencing) (liver transcriptome) | Pro-inflammatory signaling regulator and cytokine genes (NFKB1/2, RELB, CCR1/2/5, TLR1/2/4, TNFRSF1A/9/12, TNFα, CCL2/5) (liver transcriptome) | Key genes regulating FAO (PPARα, PGC1α, ACOX1, CPT2, ACADS/M/L, HADHA/B, ACOT3/4) (liver transcriptome) | Endpoint body weight, lower by ([1]; oral gavage 6 times per week, 12 weeks, glycine 0.67 mg/g, vs WD+H2O) [%] |
| --- | --- | --- | --- | --- | --- | --- | --- | --- | --- | --- | --- | --- | --- |
| Gly-Gly-Leu [DT-109] | 28 | attenuated | reduced | most potent glucose-lowering effects | 30 | 21% | most significant effects | significantly decreased | reversed NASH-diet-induced alterations in underlying pathways | attenuated | attenuated | reversed | – |
| Gly-Gly-[dL] [DT-110] | – | attenuated | – | – | – | 13% | – | significantly decreased | – | – | – | – | – |
| CC(C)C[C@H](N)C(=O)O [leucine] | – | yellowish coloration of the liver and enlarged visceral fat pads | – | – | – | trends towards increased blood glucose | – | – | – | – | upregulated | suppressed | – |
| NCC(=O)O [glycine, reference compound] | 51 | attenuated | reduced | – | 41 | 10% | most significant effects | significantly decreased | – | attenuated | attenuated | reversed | 12 |
